Data reported in paper PMC8398262, “New Sulfanilamide Derivatives Incorporating Heterocyclic Carboxamide Moieties as Carbonic Anhydrase Inhibitors” (Pharmaceuticals, 2021).

Key:
hCA IX = target: T1, hCA IX (Homo sapiens, UniProt Q16790); experiment: stopped-flow CO2 hydrase assay, hCA IX; type: biochemical; details: mean from 3 different assays, errors ±5–10%
T1 construct: made in house
Experimental: (§1) For each inhibitor, at least six traces of the initial 5–10% of the reaction were used for determining the initial velocity. The uncatalyzed rates were determined in the same manner and subtracted from the total observed rates. Stock solutions of the inhibitor (0.1 mM) were prepared in distilled–deionized water and dilutions up to 0.01 nM were done thereafter with the assay buffer. Inhibitor and enzyme solutions were preincubated together for 15 min at room temperature prior to the assay, allowing the formation of the E–I complex.

hCA XII = target: T2, hCA XII (Homo sapiens, UniProt O43570); experiment: stopped-flow CO2 hydrase assay, hCA XII; type: biochemical; details: mean from 3 different assays, errors ±5–10%
T2 construct: made in house
Experimental: as §1

hCA I = target: T3, hCA I (Homo sapiens, UniProt P00915); experiment: stopped-flow CO2 hydrase assay, hCA I; type: biochemical; details: mean from 3 different assays, errors ±5–10%
T3 construct: made in house
Experimental: as §1

hCA II = target: T4, hCA II (Homo sapiens, UniProt P00918); experiment: stopped-flow CO2 hydrase assay, hCA II; type: biochemical; details: for Ki: stopped-flow CO2 hydrase assay, mean from 3 different assays, errors ±5–10%
T4 construct: made in house
Experimental: as §1

T3 sequence (P00915 whole entry): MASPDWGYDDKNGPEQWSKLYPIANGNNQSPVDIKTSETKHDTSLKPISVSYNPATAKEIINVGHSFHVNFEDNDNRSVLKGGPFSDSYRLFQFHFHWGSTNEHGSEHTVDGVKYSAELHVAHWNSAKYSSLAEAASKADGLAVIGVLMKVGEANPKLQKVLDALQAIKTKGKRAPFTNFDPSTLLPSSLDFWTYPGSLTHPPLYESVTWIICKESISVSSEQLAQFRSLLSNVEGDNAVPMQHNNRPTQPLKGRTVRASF
T2 sequence (O43570 25-354): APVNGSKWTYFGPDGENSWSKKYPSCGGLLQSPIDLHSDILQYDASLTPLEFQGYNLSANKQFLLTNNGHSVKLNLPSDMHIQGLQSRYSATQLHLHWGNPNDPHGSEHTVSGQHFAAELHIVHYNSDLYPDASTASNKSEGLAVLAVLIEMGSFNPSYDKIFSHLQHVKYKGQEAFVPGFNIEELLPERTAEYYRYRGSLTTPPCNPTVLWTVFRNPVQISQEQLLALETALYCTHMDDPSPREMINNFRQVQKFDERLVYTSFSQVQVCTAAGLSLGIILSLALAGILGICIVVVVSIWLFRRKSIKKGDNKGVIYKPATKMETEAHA

| Structure (SMILES) | Ki (hCA IX) | Ki (hCA XII) | Ki (hCA I) | melting point | Ki (hCA II) | selectivity index (SI) towards hCA I (hCA II; selectivity for hCA II over hCA I) | selectivity index (SI) compared to hCA IX (hCA II; selectivity for hCA II over hCA IX) | selectivity index (SI) to hCA XII (hCA II; selectivity for hCA II over hCA XII) |
| --- | --- | --- | --- | --- | --- | --- | --- | --- |
| NS(=O)(=O)c1ccc(NC(=O)c2cc3occc3n2Cc2ccc(Cl)cc2)cc1 [Compound 7f, N-[4-(aminosulfonyl)phenyl]-4-(4-chlorobenzyl)-4H-furo[3,2-b]pyrrole-5-carboxamide] | 187 nM | 37.2 nM | 878 nM | 237 to 238 °C | 34.3 nM |  |  |  |
| NS(=O)(=O)c1ccc(NC(=O)c2cc3occc3n2Cc2ccccc2)cc1 [Compound 7c, N-[4-(aminosulfonyl)phenyl]-4-benzyl-4H-furo[3,2-b]pyrrole-5-carboxamide] | 276 nM | 4.6 nM | 3560 nM | 240 to 241 °C | 37.5 nM |  |  |  |
| NS(=O)(=O)c1ccc(CCNC(=O)C2=C(c3ccccc3)SCCO2)cc1 [Compound 14b, N-{2-[4-(aminosulfonyl)phenyl]ethyl}-3-phenyl-5,6-dihydro-1,4-oxathiine-2-carboxamide] | 155 nM | 6.6 nM | 71.2 nM | 208 to 209 °C | 7.4 nM |  |  |  |
| Cn1c(C(=O)Nc2ccc(S(N)(=O)=O)cc2)cc2occc21 [Compound 7a, N-[4-(aminosulfonyl)phenyl]-4-methyl-4H-furo[3,2-b]pyrrole-5-carboxamide] | 103 nM | 6.9 nM | 718 nM | 273 to 275 °C | 8.4 nM |  |  |  |
| COc1ccc(-c2nc3s/c(=C\c4ccc(-c5ccc(S(N)(=O)=O)cc5)o4)c(=O)n3n2)cc1OC [Compound 17b, 4-(5-{(Z)-[2-(3,4-Dimethoxyphenyl)-6-oxo[1,3]thiazolo[3,2 b][1,2,4]triazol-5(6H)-ylidene]methyl} -2-furyl)benzenesulfonamide] | 253 nM | 40.2 nM | 918 nM | 294 to 295 °C | 59.4 nM |  |  |  |
| NS(=O)(=O)c1ccc(-c2ccc(/C=c3\sc4nc(-c5cccc(Cl)c5)nn4c3=O)o2)cc1 [Compound 17a, 4-(5-{(Z)-[2-(3-chlorophenyl)-6-oxo[1,3]thiazolo[3,2-b][1,2,4]triazol-5(6H)-ylidene]methyl}-2-furyl)enzenesulfonamide] | 320 nM | 7.6 nM | 2920 nM | 312 to 315 °C | 44.7 nM |  |  |  |
| CC1(C(=O)Nc2ccc(S(N)(=O)=O)cc2)Oc2ccccc2NC1=O (stereo not shown) [Compound 11, N-[4-(aminosulfonyl)phenyl]-2-methyl-3-oxo-3,4-dihydro-2H-1,4-benzoxazine-2-carboxamide] | 260 nM | 5.3 nM | 70.6 nM | 269 to 270 °C | 6.5 nM |  |  |  |
| CCn1c(C(=O)Nc2ccc(S(N)(=O)=O)cc2)cc2sccc21 [Compound 8b, N-[4-(aminosulfonyl)phenyl]-4-ethyl-4H-thieno[3,2-b]pyrrole-5-carboxamide] | 251 nM | 5.1 nM | 270 nM | 248 to 249 °C | 6.8 nM |  |  |  |
| NS(=O)(=O)c1ccc(NC(=O)c2cc3sccc3n2Cc2ccc(Cl)cc2)cc1 [Compound 8f, N-[4-(aminosulfonyl)phenyl]-4-(4-chlorobenzyl)-4H-thieno[3,2-b]pyrrole-5-carboxamide] | 81.4 nM | 8.9 nM | 699 nM | 219 to 220 °C | 68.1 nM |  |  |  |
| NS(=O)(=O)c1ccc(NC(=O)c2cc3occc3n2Cc2ccccc2Cl)cc1 [Compound 7e, N-[4-(aminosulfonyl)phenyl]-4-(2-chlorobenzyl)-4H-furo[3,2-b]pyrrole-5-carboxamide] | 239 nM | 19.6 nM | 858 nM | 239 to 241 °C | 23.8 nM |  |  |  |
| NS(=O)(=O)c1ccc(NC(=O)C2=C(c3ccccc3)SCCO2)cc1 [Compound 14a, N-[4-(aminosulfonyl)phenyl]-3-phenyl-5,6-dihydro-1,4-oxathiine-2-carboxamide] | 281 nM | 6.1 nM | 56.5 nM |  | 6.7 nM |  |  |  |
| NS(=O)(=O)c1ccc(NC(=O)c2cc3occc3n2Cc2ccccc2F)cc1 [Compound 7d, N-[4-(aminosulfonyl)phenyl]-4-(2-fluorobenzyl)-4H-furo[3,2-b]pyrrole-5-carboxamide] |  |  |  | 240 to 242 °C |  |  |  |  |
| NS(=O)(=O)c1ccc(NC(=O)c2cc3sccc3n2Cc2ccccc2F)cc1 [Compound 8d, N-[4-(aminosulfonyl)phenyl]-4-(2-fluorobenzyl)-4H-thieno[3,2-b]pyrrole-5-carboxamide] | 171 nM | 8.2 nM | 656 nM | 235 to 237 °C | 8.7 nM |  |  |  |
| NS(=O)(=O)c1ccc(NC(=O)c2cc3sccc3n2Cc2ccccc2)cc1 [Compound 8c, N-[4-(aminosulfonyl)phenyl]-4-benzyl-4H-thieno[3,2-b]pyrrole-5-carboxamide] | 140 nM | 7.8 nM | 400 nM | 255 to 256 °C | 8.9 nM |  |  |  |
| Cn1c(C(=O)Nc2ccc(S(N)(=O)=O)cc2)cc2sccc21 [Compound 8a, N-[4-(aminosulfonyl)phenyl]-4-methyl-4H-thieno[3,2-b]pyrrole-5-carboxamide] | 66.6 nM | 30.7 nM | 665 nM | 276 to 278 °C | 8.8 nM | 75.5 | 7.6 | 3.5 |
